Assay results: patent publication US20250163052A1, “cGAS INHIBITORS AND USES THEREOF” (Cornell University, priority 2022, published 2025)

Legend:
THP1 cells = assay: THP1-Dual cells, cell viability (CellTiter-Glo); format: cell-based
In short: (§1)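 Readouts after overnight incubation: Quantiluc luminescence for Ifnb, Quantiblue for nfkb (both in supernatant) and CellTiter-Glo for viability. Before the DNA stimulus (2 ug/ml, lipofectamine transfection), THP1-Dual cells received compound at several dilutions for 4 h.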

m-cGAS = m-cGAS (Mus musculus, UniProt Q8C6L5); assay: Cell-free mouse cGAS enzyme inhibition assay (ATP depletion, Kinase-Glo Max); format: biochemical; conditions: 1 h; for inhibition at 1 µM: read-out: m-cGAS, conc. 1 μM; for inhibition at 10 µM: read-out: m-cGAS, conc. 10 μM
m-cGAS, sequence (Q8C6L5 whole entry): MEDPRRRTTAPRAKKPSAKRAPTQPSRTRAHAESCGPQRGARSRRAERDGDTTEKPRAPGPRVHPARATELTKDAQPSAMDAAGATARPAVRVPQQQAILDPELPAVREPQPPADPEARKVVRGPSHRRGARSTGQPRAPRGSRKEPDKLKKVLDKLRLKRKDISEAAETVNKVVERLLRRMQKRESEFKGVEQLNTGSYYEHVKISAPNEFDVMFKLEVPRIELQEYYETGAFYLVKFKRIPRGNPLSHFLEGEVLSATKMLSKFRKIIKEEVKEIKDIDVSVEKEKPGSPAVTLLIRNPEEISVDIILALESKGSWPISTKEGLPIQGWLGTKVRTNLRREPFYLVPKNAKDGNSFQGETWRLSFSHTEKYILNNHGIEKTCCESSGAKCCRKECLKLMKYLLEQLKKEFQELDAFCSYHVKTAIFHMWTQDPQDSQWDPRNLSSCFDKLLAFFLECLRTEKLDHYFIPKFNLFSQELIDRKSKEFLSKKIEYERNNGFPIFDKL

[1] = Metabolic stability in human liver microsomes; conditions: for Remaining (NCF = 60 min) / Remaining (T = 60 min): human liver microsomes; for Remaining (NCF = 60 min): no co-factor (no NADPH); for Remaining (T = 60 min): 60 min with NADPH; for CLint scaled / half-life / microsomal CLint: human, liver microsomes
[2] = Metabolic stability in mouse liver microsomes; conditions: for Remaining (NCF = 60 min) / Remaining (T = 60 min): mouse liver microsomes; for Remaining (NCF = 60 min): no co-factor (no NADPH); for Remaining (T = 60 min): 60 min with NADPH; for CLint scaled / half-life / microsomal CLint: mouse, liver microsomes
IFNB = assay: THP1-Dual cells transfected with DNA, Ifnb expression (Quantiluc); format: cell-based; conditions: Homo sapiens; for inhibition at 10 µM: THP-1, 10 μM; for inhibition at 30 µM: THP-1, 30 μM
In short: as §1

[3] = Protein binding in mouse brain homogenates; format: in vitro ADME; conditions: for recovery at 6 h / fraction unbound at 6 hr: brain homogenate; for fraction unbound at 6 hr: read-out: % BoundBrain (converted)
NFkB-SEAP = assay: THP1-Dual cells transfected with DNA, nfkb expression (Quantiblue); format: cell-based; conditions: Homo sapiens; for inhibition at 10 µM: THP-1, 10 μM; for inhibition at 30 µM: THP-1, 30 μM
In short: as §1

h-cGAS = h-cGAS (Homo sapiens, UniProt Q8N884); assay: Cell-free human cGAS enzyme inhibition assay (ATP depletion, Kinase-Glo Max); format: biochemical; conditions: 3 h; for inhibition at 1 µM: read-out: h-cGAS, conc. 1 μM; for inhibition at 10 µM: read-out: h-cGAS, conc. 10 μM
h-cGAS, sequence (Q8N884 whole entry): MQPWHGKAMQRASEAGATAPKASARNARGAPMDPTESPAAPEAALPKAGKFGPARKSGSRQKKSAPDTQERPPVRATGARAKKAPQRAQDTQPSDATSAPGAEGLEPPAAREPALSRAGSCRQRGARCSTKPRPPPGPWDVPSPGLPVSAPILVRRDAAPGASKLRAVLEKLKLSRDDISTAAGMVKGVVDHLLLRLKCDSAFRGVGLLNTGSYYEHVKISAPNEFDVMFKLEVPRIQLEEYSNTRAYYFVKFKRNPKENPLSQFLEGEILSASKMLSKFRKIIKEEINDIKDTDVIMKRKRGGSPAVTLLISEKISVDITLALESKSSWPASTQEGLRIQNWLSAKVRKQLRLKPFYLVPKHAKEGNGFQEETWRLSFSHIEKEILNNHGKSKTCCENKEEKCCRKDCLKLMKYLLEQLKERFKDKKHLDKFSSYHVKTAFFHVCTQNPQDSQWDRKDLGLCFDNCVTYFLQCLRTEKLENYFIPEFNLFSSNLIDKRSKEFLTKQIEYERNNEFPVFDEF

| inhibition at 1 µM (m-cGAS) [%] | inhibition at 10 µM (m-cGAS) [%] | Remaining (NCF = 60 min) [1] [%] | Remaining (T = 60 min) [1] [%] | CLint scaled [1] [mL/min/kg] | half-life [1] [h] | microsomal CLint [1] [µL/min/mg] | Remaining (NCF = 60 min) [2] [%] | Remaining (T = 60 min) [2] [%] | CLint scaled [2] [mL/min/kg] | half-life [2] [h] | microsomal CLint [2] [µL/min/mg] | LogK [3] | % Remaining at 6 hr [3] [%] | recovery at 6 h [3] [%] | fraction unbound at 6 hr [3] | Compound | Cell viability 10 μM (THP1 cells) | Cell viability 30 μM (THP1 cells) | inhibition at 10 µM (IFNB) [%] | inhibition at 30 µM (IFNB) [%] | other results |
| --- | --- | --- | --- | --- | --- | --- | --- | --- | --- | --- | --- | --- | --- | --- | --- | --- | --- | --- | --- | --- | --- |
| 75 to 100 | 75 to 100 | 109.6 | 87.6 | < 8.6 | > 2.42 | < 9.6 | 90.0 | 72.5 | 38.5 | 2.38 | 9.7 | >4.39 | 90.87 | < 82.4 | < 4e-05 | Cn1cc(-c2cc(Cl)c(Cl)c3oc4c(c23)CN(C(=O)CN)CC4)cn1 [Compound 33] | +++ (+, ++, and +++ mean the compound respectively shows 25-49%; 50-74%; or 75-100% viability to cells) | + (+, ++, and +++ mean the compound respectively shows 25-49%; 50-74%; or 75-100% viability to cells) | 25 to 49 | 75 to 100 | inhibition at 10 µM (NFkB-SEAP): 25 to 49%; inhibition at 30 µM (NFkB-SEAP): 75 to 100%; inhibition at 1 µM (h-cGAS): 50 to 74%; inhibition at 10 µM (h-cGAS): 75 to 100% |
| 25 to 49 | 75 to 100 | 89.2 | 93.6 | < 8.6 | > 2.42 | < 9.6 | 97.8 | 84.8 | < 38 | > 2.42 | < 9.6 | 1.12 | 98.24 | 92.8 | 0.0706 | Cn1cc(-c2cc(Cl)c(Cl)c3sc4c(c23)CCN(C(=O)CN)C4)cn1 [Compound 74] | +++ (+, ++, and +++ mean the compound respectively shows 25-49%; 50-74%; or 75-100% viability to cells) | − (Cell viability <24%, in THP1 cells is expressed as “−”) | 75 to 100 | 75 to 100 | inhibition at 10 µM (NFkB-SEAP): 25 to 49%; inhibition at 30 µM (NFkB-SEAP): 50 to 74%; inhibition at 1 µM (h-cGAS): 0 to 24%; inhibition at 10 µM (h-cGAS): 25 to 49% |
